From US4368203A, “Antibiotics and derivatives thereof having β-lactamase inhibitory activity and production thereof” (priority 1977, dated 1983)
Entries after “also recorded” stand apart in the source; their conditions may differ.

Key:
Solubility = assay type: physicochemical; settings: antibiotic (sodium salt); for Solubility in organic solvents: solvents named in the value
Description: The results are as shown as below:
The results are as shown below:

Proteus vulgaris P-5 = assay: Potentiating and synergistic effect, pulp disc inhibition zone on agar plate; assay type: cell-based; settings: for Diameter of inhibitory zone, No addition / Diameter of inhibitory zone, Cephaloridine-added: Table 8; for Diameter of inhibitory zone, No addition: medium without cephaloridine; for Diameter of inhibitory zone, Cephaloridine-added: cephaloridine in the agar
Experimental: (§1) 10 ml of 2.5 folds diluted nutrient agar (pH 7.0) containing 50 μg/ml of penicillin G or cephaloridine was seeded with the β-lactamase producing and β-lactam-resistant microorganisms and poured in a 9 cm Petri dish to provide the bio-assay agar plate. […] A control assay plate was similarly prepared without penicillin G or cephaloridine. As reference antibiotics, 10,000 μg/ml of penicillin G or 20 μl of cephaloridine were disc-assayed under the same conditions.
(§2) Cepholoridine was added to a 2.5-times diluted nutrient agar, pH 7.0 and the medium was inoculated with a β-lactam-producing strain that produceds β-lactamase. Ten ml of the medium was spread and solidified in a petri dish of 9 cm in diameter to prepare an assay plate. […] Each 20 μl of the solution and its 2- and 4-times diluted solutions was soaked in a pulp disc of 8 mm in diameter. To the surface of the above nutrient agar was placed the pulp disc and the size of the growth inhibitory zone around the disc was examined after incubation at 35° C. for 18 hours. […] In addition, for the comparison, a similar experiment was also performed with a pulp disk soaked with 20 μl of 10,000 μg/ml Penicillin G or Cepholoridine solution in place of the antibiotic PS-7.

[1] = tested on: Inducible penicillinase of Bacillus cereus 569 (ATCC 27348); assay: Susceptibility to beta-lactamase as enzymic substrate; assay type: biochemical; settings: for Km: 30° C., pH 6.8 phosphate buffer, decrease of optical density at 301 nm (PS-6) or 308 nm (PS-7); for Behavior against β-lactamase: β-lactamase of Bacillus cereus
Experimental: (b) Inducible penicillinase of Bacillus cereus 569 (ATCC 27348). This beta-lactamase was induced by ampicillin and purified by CM-cellulose column chromatography.
Time course of the hydrolysis was traced at 30° C. by determining the decrease in optical density at 301 nm which corresponds specifically to the concentration of antibiotic PS-6. As described in Japanese Patent Application No. 94651/77, the antibiotic PS-5 sodium salt preparation gave a E1 cm^1% value of 267.5 at the λmax of 301 nm. If this preparation contained no water of crystallization, its epsilon value would be 8560.
As 5% of the initial optical density of antibiotic PS-5 at 301 nm remained even after the complete decomposition with hydroxylamine or beta-lactamase, the differential optical density of this substrate at 301 nm was supposed to be Δε=8132. This was supposed to be applicable to the antibiotic PS-6, and the following calculation was carried out.
(b) Inducible penicillinase of Bacillus cereus 569. Time course of the hydrolysis of antibiotic PS-6 by this beta-lactamase was followed under the above-described conditions by determining the optical density at 301 nm of the reaction mixtures containing 7.5 μl of the above mentioned enzyme preparation and […] of antibiotic PS-6 as the substrate in a total of 3.0 ml (final concentration of antibiotic PS-6=[…]/ml=8.63 μg/ml; optical density at 301 nm=0.366).
The behavior of the antibiotic PS-7 (sodium salt) against the induced-type penicillinase produced by Bacillus careus 569 (ATCC 27348) as the substrate was examined according to the following method:
Sodium salt of the antibiotic PS-7 was dissolved in 100 mM phosphate buffer solution (pH 6.8) at the indicated concentration.
The induced-type penicillinase of Bacillus cereus 569 (ATCC 27348) was induced by Ampicillin and partially purified by CM cellulose (Brown Co.) column chromatography.
The solution of the antibiotic PS-7 that was served as the substrate was warmed at 30° C. […] The reaction was carried out at 30° C. and a decrease in the substrate, antibiotic PS-7, was monitered by the absorbance at 308 nm.
A balance of absorbance at 308 nm was determined to be ε=9720 on the assumption that the ε value of the antibiotic PS-7 is 10,800 based on the decrease in the absorbance when pure preparation of the antibiotic PS-7 was completely decomposed by the enzyme above mentioned.
A reaction mixture containing 10 μl of the penicillinase preparation and 102 mμ moles of the antibiotic PS-7 (final concentration: 34 mμ moles/ml) in a total volumn of 3.0 ml was incubated under the conditions mentioned above and change of decreasing concentration of the antibiotic PS-7 was measured in relation to the incubation time.

[2] = tested on: Staphylococcus aureus Smith; assay: In vivo activity in intraperitoneally infected mice; parameters: species or system DDY male mice; settings: for ED50: Staphylococcus aureus, sc, mice infected i.p. with 5×10^5 cells/mouse, subcutaneous injection just after infection, read-out: 50% curative dose (CD50); for Therapeutic effect in infected mice: mice infected with pathogenic Gram-positive bacteria
Experimental: Soon after infection, an aqueous solution of the antibiotic PS-5 sodium salt preparation was subcutaneously injected.
Activity of the antibiotic PS-7 obtained above was determined using mice infected with Staphylococcus aureus Smith at 5×10^5 cells a mouse intraperitoneally. Sodium salt of the antibiotic PS-7 was administered to the mice subcutaneously immediately after the infection.
The tritylation product of antibiotic PS-6 was subcutaneously injected just after infection. The 50% curative dose on male DDY mice (SHIZUOKA) was 5.5 mg/kg.
The tritylation product of antibiotic PS-7 was subcutaneously injected just after infection. The 50% curative dose on make DDY mice (SHIZUOKA) was 4.5 mg/kg.

[3] = Acute toxicity, intraperitoneal administration; assay type: in vivo, DDY male mice
[4] = tested on: β-lactamase-producing, β-lactam-resistant bacteria; assay: Increase of the antibiotic activity of other antibiotics (summary in words); assay type: cell-based; settings: β-lactamase-producing bacteria such as Proteus vulgaris, Serratia marcescens
Experimental: as §1, §2

[5] = Stability (general statements); assay type: physicochemical; settings: general statement
[6] = tested on: Gram-positive and Gram-negative bacteria; assay: Antibiotic spectra (summary in words); assay type: cell-based; settings: for Antibiotic activity against Gram-negative bacteria resistant to β-lactam antibiotics: genera Citrobacter, Proteus, Klebsiella, Enterobacter, Serratia as named at the place; for Antibiotic activity against Gram-positive bacteria: genera Staphylococcus, Diplococcus, Streptococcus, Bacillus as named at the place
[7] = disc x2 (2-times diluted PS-7 solution)
[8] = disc x4 (4-times diluted PS-7 solution)

With `CCC1C(=O)N2C(C(=O)O)=C(SC=CNC(C)=O)CC12` (stereo not drawn) [Antibiotic PS-7] the Solubility in water (Solubility) was “Soluble in water at pH6-9”, the “Solubility in organic solvents” value (Solubility) was “practically insoluble in benzene, acetone and ethyl acetate” and the “Diameter of inhibitory zone, No addition” value (Proteus vulgaris P-5; disc x1 (undiluted PS-7 solution, 50 μg/ml or 29 μg/ml, 20 μl)) was 0.0 mm. For the same compound, the “Diameter of inhibitory zone, Cephaloridine-added” value (Proteus vulgaris P-5; disc x1 (undiluted PS-7 solution, 20 μl)) was 19.0 mm, the “Diameter of inhibitory zone, Cephaloridine-added” value (Proteus vulgaris P-5; [7]) was 15.0 mm and the “Diameter of inhibitory zone, No addition” value (Proteus vulgaris P-5; [7]) was 0.0 mm. For the same compound, the “Diameter of inhibitory zone, Cephaloridine-added” value (Proteus vulgaris P-5; [8]) was 11.0 mm, the “Diameter of inhibitory zone, No addition” value (Proteus vulgaris P-5; [8]) was 0.0 mm and the Km [1] was 13 µM. For the same compound, the “Behavior against β-lactamase” value [1] was “inactivated”, the ED50 [2] was 7.5 mg/kg and the “Therapeutic effect in infected mice” value [2] was “marked therapeutic effect”. The Acute toxicity ([3]; DDY male mice, dose not given) was “No acute toxicity”, the Acute toxicity ([3]; mice, 500 mg/kg) was “no acute toxicity” and the “Synergistic enhancement of the activity of penicillin G or cephaloridine (β-lactam antibiotics)” value [4] was “ability to enhance antimicrobial activity of other antibiotics; also recorded: evident enhancement of antimicrobial activity”. The Stability [5] was “somewhat labile; also recorded: more stable in the salt form than in the free acid state”, the “Antibiotic activity against Gram-negative bacteria of the genus Alcaligenes (Comamonas)” value [6] was “high antimicrobial activity” and the “Antibiotic activity against Gram-negative bacteria resistant to β-lactam antibiotics” value [6] was “high antimicrobial activity”. The “Antibiotic activity against Gram-positive bacteria” value [6] was “very high antimicrobial activity”.
In the case of `CC(=O)NCCSC1=C(C(=O)O)N2C(=O)C(C(C)C)C2C1` (stereo not drawn) [Antibiotic PS-6], the Solubility in water (Solubility) is reported as “soluble in water at pH 6 to 9”, the “Solubility in organic solvents” value (Solubility) is reported as “substantially insoluble in benzene, acetone and ethylacetate” and the zone of inhibition at 240 µg/mL (Proteus vulgaris P-5; Proteus vulgaris, P5, Table 6, plate without penicillin G or cephaloridine, 8 mm disc, 20 μl, PS-6 240 μg/ml, reference antibiotics 10,000 μg/ml, 35° C. 18 hours, read-out: Inhibition zone, Control) is reported as 14 mm. The “Inhibition zone, with cephaloridine” value (Proteus vulgaris P-5; Table 6, agar containing 50 μg/ml of cephaloridine, disc 20 μl, PS-6 240 μg/ml, reference antibiotics 10,000 μg/ml) was 28.5 mm, the “Inhibition zone, with penicillin G” value (Proteus vulgaris P-5; Table 6, agar containing 50 μg/ml of penicillin G, disc 20 μl, PS-6 240 μg/ml, reference antibiotics 10,000 μg/ml) was 30.0 mm and the Km [1] was 17.7 µM. The “Behavior against β-lactamase” value [1] was “inactivated”, the ED50 [2] was 5.2 mg/kg and the “Therapeutic effect in infected mice” value [2] was “marked therapeutic effect”. The Acute toxicity ([3]; mice, 500 mg/kg) was “no toxicity”, the Acute toxicity ([3]; mice, 500 mg/kg, listed as PS-6 sodium salt) was “No acute toxicity” and the “Synergistic enhancement of the activity of penicillin G or cephaloridine (β-lactam antibiotics)” value [4] was “showed clearly the synergistic effect; also recorded: ability to increase the antibiotic activity of other antibiotics”. The Stability [5] was “somewhat labile; also recorded: more stable in the salt form than in the free acid state”, the “Antibiotic activity against Gram-negative bacteria of the genera Klebsiella, Proteus” value [6] was “good activity” and the “Antibiotic activity against Gram-negative bacteria of the genus Alcaligenes (Comamonas)” value [6] was “very strong activity”. For the same compound, the “Antibiotic activity against Gram-negative bacteria resistant to β-lactam antibiotics” value [6] was “strong activity” and the “Antibiotic activity against Gram-positive bacteria” value [6] was “very strong activity”.
